Measurements from PubChem BioAssay (NCI).
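Grown in 96-well plates, cells were treated for 48 hours with each compound at five concentrations. Insufficient inhibition: endpoint recorded as highest concentration tested. GI50 is the concentration that inhibits growth by half. TGI: concentration producing complete growth inhibition.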

Legend:
Assay in all cases: growth of human tumour cells (NCI), 48 h
[1] = system: HCT-116 colon
[2] = system: SR leukemia
[3] = system: 786-0 renal
[4] = system: OVCAR-3 ovarian
[5] = system: SNB-75 CNS
[6] = system: CAKI-1 renal
[7] = system: NCI/ADR-RES ovarian
[8] = system: EKVX NSCLC
[9] = system: SF-539 CNS
[10] = system: HCT-15 colon
[11] = system: K-562 leukemia
[12] = system: LOX IMVI melanoma
[13] = system: HS 578T breast
[14] = system: UO-31 renal
[15] = system: SF-295 CNS
[16] = system: HCC-2998 colon
[17] = system: SK-MEL-2 melanoma
[18] = system: PC-3 prostate
[19] = system: IGROV1 ovarian
[20] = system: SNB-19 CNS
[21] = system: U251 CNS
[22] = system: RXF 393 renal
[23] = system: SK-MEL-5 melanoma
[24] = system: OVCAR-8 ovarian
[25] = system: A549 NSCLC
[26] = system: NCI-H226 lung
[27] = system: MDA-MB-231 breast
[28] = system: NCI-H23 lung
[29] = system: HOP-62 NSCLC
[30] = system: A498 renal
[31] = system: TK-10 renal
[32] = system: MALME-3M melanoma
[33] = system: MOLT-4 leukemia
[34] = system: BT-549 breast
[35] = system: HL-60(TB) leukemia
[36] = system: UACC-257 melanoma
[37] = system: HT29 colon
[38] = system: SW-620 colon
[39] = system: MCF7 breast
[40] = system: HOP-92 NSCLC
[41] = system: SF-268 CNS
[42] = system: NCI-H460 lung
[43] = system: OVCAR-5 ovarian
[44] = system: SN12C renal
[45] = system: ACHN renal
[46] = system: SK-OV-3 ovarian
[47] = system: T-47D breast
[48] = system: UACC-62 melanoma
[49] = system: KM12 colon
[50] = system: NCI-H522 lung
[51] = system: COLO 205 colon
[52] = system: CCRF-CEM leukemia
[53] = system: RPMI-8226 leukemia
[54] = system: OVCAR-4 ovarian
[55] = system: DU-145 prostate
[56] = system: M14 melanoma
[57] = system: SK-MEL-28 melanoma

Work on `COc1cc2ncn(-c3cc(O[C@H](C)c4ccccc4Cl)c(C(N)=O)s3)c2cc1OC` yielded a GI50 [1] of 10.2 nM, a TGI [1] of 6.44 µM and a GI50 [2] of 7.92 nM. For the same compound, the TGI [2] was > 6.4 µM, the GI50 [3] was 41.2 nM and the TGI [3] was 3.11 µM. The GI50 [4] was 6.64 nM, the TGI [4] was 2150 nM and the GI50 [5] was 23.8 nM. The TGI [5] was 3.59 µM, the GI50 [6] was 99.9 nM and the TGI [6] was 20.8 µM. For the same compound, the GI50 [7] was 8.12 nM, the TGI [7] was 8.72 µM and the GI50 [8] was 87.2 nM. For the same compound, the TGI [8] was > 25 µM, the GI50 [9] was 10.9 nM and the TGI [9] was 2740 nM. For the same compound, the GI50 [10] was 10.7 nM, the TGI [10] was > 25 µM and the GI50 [11] was 8.74 nM. For the same compound, the TGI [11] was > 25 µM, the GI50 [12] was 10.5 nM and the TGI [12] was 4.37 µM. It also gave a GI50 [13] of 65.2 nM, a TGI [13] of 804 nM and a GI50 [14] of 482 nM. The TGI [14] was 12.1 µM, the GI50 [15] was 12.7 nM and the TGI [15] was > 25 µM. It also gave a GI50 [16] of 14.8 nM, a TGI [16] of 6.18 µM and a GI50 [17] of 6.79 nM. For the same compound, the TGI [17] was 5.02 µM, the GI50 [18] was 14.1 nM and the TGI [18] was > 25 µM. The GI50 [19] was 19.7 nM, the TGI [19] was 12.9 µM and the GI50 [20] was 22.5 nM. For the same compound, the TGI [20] was > 25 µM, the GI50 [21] was 16.1 nM and the TGI [21] was > 25 µM. For the same compound, the GI50 [22] was 9.47 nM, the TGI [22] was 3.53 µM and the GI50 [23] was 9.12 nM. For the same compound, the TGI [23] was 1080 nM, the GI50 [24] was 11.4 nM and the TGI [24] was 11.8 µM. The GI50 [25] was 14 nM, the TGI [25] was > 14.4 µM and the GI50 [26] was 228 nM. The TGI [26] was 6.99 µM, the GI50 [27] was 21 nM and the TGI [27] was > 25 µM. It also gave a GI50 [28] of 10 nM, a TGI [28] of 4.39 µM and a GI50 [29] of 15.8 nM. The TGI [29] was > 25 µM, the GI50 [30] was 12.1 nM and the TGI [30] was 194 nM. The GI50 [31] was 414 nM, the TGI [31] was 4.45 µM and the GI50 [32] was 1710 nM. It also gave a TGI [32] of 12.3 µM, a GI50 [33] of 9.79 nM and a TGI [33] of 3.76 µM. The GI50 [34] was 88.8 nM, the TGI [34] was 4.44 µM and the GI50 [35] was 6.81 nM. It also gave a TGI [35] of 3.89 µM, a GI50 [36] of 2930 nM and a TGI [36] of 15.4 µM. The GI50 [37] was 4.32 nM, the TGI [37] was 4.26 µM and the GI50 [38] was 5.5 nM. For the same compound, the TGI [38] was 5.57 µM, the GI50 [39] was 4.31 nM and the TGI [39] was 5.6 µM. The GI50 [40] was 489 nM, the TGI [40] was 7.47 µM and the GI50 [41] was 16 nM. It also gave a TGI [41] of 20.1 µM, a GI50 [42] of 9.55 nM and a TGI [42] of 1240 nM. For the same compound, the GI50 [43] was 13.9 nM, the TGI [43] was > 23.8 µM and the GI50 [44] was 69.2 nM. The TGI [44] was > 21.5 µM, the GI50 [45] was 1040 nM and the TGI [45] was > 25 µM. The GI50 [46] was 9.7 nM, the TGI [46] was 12.7 µM and the GI50 [47] was 146 nM. It also gave a TGI [47] of 7.76 µM, a GI50 [48] of 154 nM and a TGI [48] of 7.43 µM. It also gave a GI50 [49] of 7.28 nM, a TGI [49] of 3.86 µM and a GI50 [50] of 6.56 nM. It also gave a TGI [50] of 2840 nM, a GI50 [51] of 5.44 nM and a TGI [51] of 4.58 µM. For the same compound, the GI50 [52] was 2.5 nM, the TGI [52] was 13.1 µM and the GI50 [53] was 10.2 nM. The TGI [53] was 3.99 µM, the GI50 [54] was 3.67 µM and the TGI [54] was > 25 µM.

In the case of `CCOC(=O)Nn1c(C)nnc1CC#N`, the TGI [1] was > 100 µM, the TGI [2] was > 100 µM and the TGI [3] was > 100 µM. The TGI [55] was > 100 µM, the TGI [4] was > 100000 nM and the TGI [5] was > 100 µM. For the same compound, the TGI [6] was > 100 µM, the TGI [7] was > 100 µM and the TGI [9] was > 100000 nM. For the same compound, the TGI [10] was > 100 µM, the TGI [11] was > 100 µM and the TGI [12] was > 100 µM. For the same compound, the TGI [13] was > 100000 nM, the TGI [14] was > 100 µM and the TGI [15] was > 100 µM. The TGI [16] was > 100 µM, the TGI [17] was > 100 µM and the TGI [18] was > 100 µM. The TGI [19] was > 100 µM, the TGI [20] was > 100 µM and the TGI [21] was > 100 µM. The TGI [22] was > 100 µM, the TGI [23] was > 100000 nM and the TGI [24] was > 100 µM. The TGI [25] was > 100 µM, the TGI [26] was > 100 µM and the TGI [27] was > 100 µM. For the same compound, the TGI [28] was > 100 µM, the TGI [29] was > 100 µM and the TGI [31] was > 100 µM. The TGI [32] was > 100 µM, the TGI [33] was > 100 µM and the TGI [34] was > 100 µM. The TGI [35] was > 100 µM, the TGI [36] was > 100 µM and the TGI [37] was > 100 µM. The TGI [38] was > 100 µM, the TGI [39] was > 100 µM and the TGI [56] was > 100 µM. The TGI [40] was > 100 µM, the TGI [41] was > 100 µM and the TGI [42] was > 100000 nM. For the same compound, the TGI [43] was > 100 µM, the TGI [44] was > 100 µM and the TGI [45] was > 100 µM. The TGI [57] was > 100 µM, the TGI [47] was > 100 µM and the TGI [48] was > 100 µM. The TGI [49] was > 100 µM, the TGI [50] was > 100000 nM and the TGI [53] was > 100 µM.
